The text below walks through data of patent US20090232909A1, “Method for determining physiological effects of hemoglobin” (priority 1999, published 2009).

“Also recorded” adds a separate entry of the source.

For one experiment, the target named is T1, AE1 (Homo sapiens, UniProt P02730).
T1 construct: immunoprecipitated AE1 with monoclonal antibodies, and measured NO in immunoprecipitates (IPs); endogenous in cells; host or cells: RBCs (fresh venous blood) and IOVs from outdated RBCs; TX-100 or NP-40 extracts
T1 sequence (P02730 1-911): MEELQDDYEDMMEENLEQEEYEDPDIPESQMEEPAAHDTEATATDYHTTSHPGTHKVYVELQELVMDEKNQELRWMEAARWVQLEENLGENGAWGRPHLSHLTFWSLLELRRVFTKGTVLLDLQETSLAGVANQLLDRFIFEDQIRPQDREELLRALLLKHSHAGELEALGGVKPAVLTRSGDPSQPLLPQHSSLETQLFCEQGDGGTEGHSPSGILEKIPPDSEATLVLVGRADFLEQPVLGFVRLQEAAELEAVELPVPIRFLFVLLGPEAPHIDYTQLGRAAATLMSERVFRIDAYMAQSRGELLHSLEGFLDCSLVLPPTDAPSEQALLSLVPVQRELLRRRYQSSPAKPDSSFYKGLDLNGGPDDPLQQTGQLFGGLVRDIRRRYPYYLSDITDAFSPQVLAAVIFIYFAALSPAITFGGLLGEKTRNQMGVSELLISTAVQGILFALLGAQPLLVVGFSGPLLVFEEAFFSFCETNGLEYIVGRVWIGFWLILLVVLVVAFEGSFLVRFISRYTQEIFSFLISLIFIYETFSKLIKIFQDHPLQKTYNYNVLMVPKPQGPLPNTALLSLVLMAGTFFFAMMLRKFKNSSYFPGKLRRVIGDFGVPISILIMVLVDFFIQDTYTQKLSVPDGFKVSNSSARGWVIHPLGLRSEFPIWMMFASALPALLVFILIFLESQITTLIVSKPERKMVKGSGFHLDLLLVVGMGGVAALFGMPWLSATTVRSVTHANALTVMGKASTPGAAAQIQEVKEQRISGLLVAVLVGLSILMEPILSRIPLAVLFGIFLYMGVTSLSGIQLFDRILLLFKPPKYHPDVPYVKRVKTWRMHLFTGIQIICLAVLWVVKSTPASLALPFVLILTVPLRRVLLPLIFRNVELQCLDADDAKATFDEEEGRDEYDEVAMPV
Kind of experiment: SNO content of AE1 immunoprecipitates from IOV and RBC membrane extracts. The experiment is classed as biochemical. The following applies: RBCs treated with 0.1 mM DIDS before NO. The protocol: (§1) Immunoprecipitation was carried out by incubation of TX-100 or NP-40 extracts with antibodies followed by protein G-Sepharose. We employed two monoclonal anti-AE1 antibodies (Sigma, clone BIII-136, and kindly provided by M. Telen) that recognized epitopes in the cytoplasmic domain and that produced indistinguishable results. Immune complexes were eluted with 10 mM glycine at pH 3.0, and eluates were adjusted immediately to pH 7.4 followed by photolysis/chemiluminescence. Efficiency of immunoprecipitation was confirmed by Western blotting. Binding of SNO-Hb to IOVs was assessed in 10 mM MOPS buffer, pH 7, at room temperature and 21% O2. Incubation was for 15 mins before IOVs were solubilized in 1% TX-100, and heme content was assessed spectrophotometrically. When employed, RBCs were treated for 60 mins with DIDS (0.1 mM; calculated 10-fold molar excess over AE1), then washed thoroughly to remove unreacted DIDS. RBCs were then exposed to NO (as above) or used to prepare DIDS-modified IOVs (as above).
To assess this mechanism, we incubated IOVs with free or Sepharose-bound NO-Hb and also treated RBCs with NO(NO:heme ratio of 1:250), prepared TX-100 or NP-40 extracts of IOVs and RBC membranes, immunoprecipitated AE1 with monoclonal antibodies, and measured NO in immunoprecipitates (IPs). […] SNO was detected at negligible levels in IPs generated with a non-specific mouse IgG (FIGS. 8A-8C). […]

The test system of another experiment is IOVs. The experiment is described as follows: Binding of SNO-Hb to IOVs from native or DIDS-treated RBCs. Particulars: 10 mM MOPS, pH 7, 21% O2. The protocol:
as §1

In the next experiment the target is Hb (Homo sapiens, UniProt P68871+P69905). Particulars: cited from earlier work.
Hb, sequence (P69905 2-142 limits assumed): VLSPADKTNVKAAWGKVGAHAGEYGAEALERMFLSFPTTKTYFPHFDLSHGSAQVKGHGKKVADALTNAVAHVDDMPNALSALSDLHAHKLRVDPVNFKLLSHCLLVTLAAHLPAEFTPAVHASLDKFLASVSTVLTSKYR
Hb, sequence (P68871 2-147 limits assumed): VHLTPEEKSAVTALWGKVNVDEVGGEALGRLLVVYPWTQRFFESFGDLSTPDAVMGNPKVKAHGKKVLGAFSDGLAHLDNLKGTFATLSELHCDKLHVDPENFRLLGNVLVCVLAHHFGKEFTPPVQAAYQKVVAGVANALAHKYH

For `O=S(=O)(O)c1cc(N=C=S)ccc1C=Cc1ccc(N=C=S)cc1S(=O)(=O)O` [DIDS, 4,4′-diisothiocyanatostilbene-2,2′-disulfonic acid], the “effect on SNO content of AE1 IPs from RBC membrane extracts” value on AE1 is “reduced substantially; also recorded: greatly reduced”. Further, the “SNO-Hb binding to IOVs from native vs DIDS-treated RBCs” value in the experiment on IOVs is “equal affinity”.

As for `[N]=O` [NO, nitric oxide], on Hb, the “rate constant of NO-mediated oxidation of oxyHb to metHb” value is 3.7e+07 M⁻¹ s⁻¹ and the “rate constant of binding of NO to unoccupied hemes in Hb” value was 2.6e+07 M⁻¹ s⁻¹.
